US10226467B2, “Compounds for the treatment of myotonic dystrophy” (UNIVERSITAT DE VALÈNCIA, priority 2014, dated 2019)

What was measured:
[1] = test system: 6-FAM-(CUG)23 probe (CUG repeats RNA); conditions: positive control, Warf et al. 2009; cited from earlier work
[2] = test system: ribonuclear foci in DM1 fibroblasts; experiment: Ribonuclear foci per cell (in situ hybridization of CUG repeat RNA); format: cell-based, human; conditions: FIG. 4, versus DMSO
Source text: Its reduction is typically used as evidence of desired activity against myotonic dystrophy in cell culture models because MBNL proteins are sequestered in ribonuclear foci. Since MBNL proteins are limiting in myotonic dystrophies an increase in free MBNLs is expected to be therapeutic. • Evidences from Human Myoblasts:
Cell model of the disease (provided by the D. Furling's laboratory, Institute of Myologie, Paris) consisted of normal and DM1 (1300 CTG repeats) immortalized (hTERT) skin fibroblasts expressing conditional MyoD. Fibroblast cells were grown in Dulbecco's Modified Eagle Medium (DMEM) with 4.5 g/L of glucose, 1% of penicillin and streptomycin (P/S) and 10% foetal bovine serum (FBS) (Sigma). Fibroblasts were transdifferentiated in myoblasts by inducing expression of MyoD. […]
In situ hybridization with CUG repeat RNA. […] Images were taken using a Leica DM2500 fluorescence microscope and foci were manually counted from at least 50 cells per compound.
DM1 fibroblasts were seeded in a […] (8000 cell/per well) in standard media one day before adding the compounds to the media. […] Incell 200 plate reader confocal was used for detection and quantification of the parameters selected and the data was analyzed using Graphpad software for statistical comparison of results.

[3] = test system: MBNL1 in DM1 myoblasts; experiment: Quantification of Mbl expression or localization (anti-MBNL1 immunodetection); format: cell-based, human; conditions: FIG. 6, at 1 microM, one day, versus DMSO
Protocol: Immortalized transdifferentiated DM1 fibroblasts were seeded in a […] (8000 cell/per well) in standard media. To achieve the differentiation of the fibroblast to myoblasts, we induced MyoD expression by changing the standard media to differentiation media with Doxocycline and without serum. 24 h after induction, the compounds were added the cells at different concentrations, always maintaining the concentration of the solvent (DMSO) at 1% in the media. Every concentration of compound was tested in three different wells. 24 h after adding the compounds the cells were fixed with paraformaldehyde 4% in PBS and Mbl detection using monoclonal anti-MBNL1 antibody was performed counterstaining with Hoechst to detect the nuclei. Incell 200 plate reader confocal was used for detection and quantification of the parameters selected and the data was analyzed using Graphpad software for statistical comparison of results.

[4] = test system: 6-FAM-(CUG)23 probe (CUG repeats RNA); experiment: Fluorescence polarization assay of binding to CUG repeat RNA; conditions: FIG. 2; increasing concentrations; compared to a control compound that does not bind CUG repeats
Protocol: This was assessed in fluorescence polarization spectroscopy experiments. In these tests, when polarized light excites a fluorophore conjugated to a small molecule, it undergoes rotational diffusion faster than the time required for light emission occurs, resulting in a random arrangement of the molecule in the fluorescence emission time (depolarization). However, the rotation of the molecule becomes slower depending on the viscosity of the medium or the molecular volume, increasing the polarization of the emitted light. Thus, by measuring changes in polarization of an RNA with 23 CUG repeats conjugated to the fluorophore carboxyfluorescein, FAM (CUG) 23, we can consider whether a candidate molecule binds to the RNA.
Fluorescent CUG RNA (carboxyfluorescein (6-FAM)-labeled) was incubated with increasing concentrations of example compounds. […]
Carboxyfluorescein-labeled CUG RNA (6-FAM-CUG23) at 6 nM was incubated with the compounds at different concentrations in binding buffer (50 mM Tris-HCl pH 7.0, 250 mM NaCl, 50 μM ZnCl2, 10% glycerol, 1 mM DTT) on ice for 20 min in the dark. Polarization was measured in an EnVision® Multilabel Reader using as excitation filter FP480 and as emission filter FP535.

N=C(N)c1ccc(OCCCCCOc2ccc(C(=N)N)cc2)cc1 [pentamidine]
binding to CUG repeats (previously shown) [1]: attached to the CUG repeats

Cn1c(=O)c2c(ncn2CCCCCCCn2cnc3c2c(=O)n(C)c(=O)n3C)n(C)c1=O [Theophylline-C7]
mean number of ribonuclear foci per cell [2]: significantly decreased

Cn1c(=O)[nH]c2ncn(C)c2c1=O [Compound 6, 1,7-Dimethylxanthine]
Mbl staining intensity in nuclei [3]: increase significantly

Cn1c(=O)c2c(ncn2CCCCCCCCCn2cnc3c2c(=O)n(C)c(=O)n3C)n(C)c1=O [Theophylline-C9]
mean number of ribonuclear foci per cell [2]: significantly decreased
binding to CUG repeats (polarization of 6-FAM-(CUG)23 probe relative to probe alone) [4]: very strong bond

Cn1c(=O)[nH]c(=O)c2[nH]cnc21 [Compound 8, 3-Methylxanthine]
Mbl staining intensity in nuclei [3]: increase significantly

CCCn1c(=O)c2[nH]cnc2n(CC)c1=O [Compound 9, 3-Ethyl-1-propylxanthine]
Mbl staining intensity in nuclei [3]: increase significantly

CC(C)Cn1c(=O)n(C)c(=O)c2[nH]cnc21 [Compound 7, 3-Isobutyl-1-methylxanthine]
Mbl staining intensity in nuclei [3]: increase significantly
